Assay results from article PMC7048932, “Examining sterically demanding lysine analogs for histone lysine methyltransferase catalysis” (Scientific Reports, 2020).

Target: T1, GLP (Homo sapiens, UniProt Q9H9B1)
T1 construct: His6 (N); made in house; host or cells: E. coli BL21 (DE3)pLysS-rosetta
T1 sequence (Q9H9B1 1-1298): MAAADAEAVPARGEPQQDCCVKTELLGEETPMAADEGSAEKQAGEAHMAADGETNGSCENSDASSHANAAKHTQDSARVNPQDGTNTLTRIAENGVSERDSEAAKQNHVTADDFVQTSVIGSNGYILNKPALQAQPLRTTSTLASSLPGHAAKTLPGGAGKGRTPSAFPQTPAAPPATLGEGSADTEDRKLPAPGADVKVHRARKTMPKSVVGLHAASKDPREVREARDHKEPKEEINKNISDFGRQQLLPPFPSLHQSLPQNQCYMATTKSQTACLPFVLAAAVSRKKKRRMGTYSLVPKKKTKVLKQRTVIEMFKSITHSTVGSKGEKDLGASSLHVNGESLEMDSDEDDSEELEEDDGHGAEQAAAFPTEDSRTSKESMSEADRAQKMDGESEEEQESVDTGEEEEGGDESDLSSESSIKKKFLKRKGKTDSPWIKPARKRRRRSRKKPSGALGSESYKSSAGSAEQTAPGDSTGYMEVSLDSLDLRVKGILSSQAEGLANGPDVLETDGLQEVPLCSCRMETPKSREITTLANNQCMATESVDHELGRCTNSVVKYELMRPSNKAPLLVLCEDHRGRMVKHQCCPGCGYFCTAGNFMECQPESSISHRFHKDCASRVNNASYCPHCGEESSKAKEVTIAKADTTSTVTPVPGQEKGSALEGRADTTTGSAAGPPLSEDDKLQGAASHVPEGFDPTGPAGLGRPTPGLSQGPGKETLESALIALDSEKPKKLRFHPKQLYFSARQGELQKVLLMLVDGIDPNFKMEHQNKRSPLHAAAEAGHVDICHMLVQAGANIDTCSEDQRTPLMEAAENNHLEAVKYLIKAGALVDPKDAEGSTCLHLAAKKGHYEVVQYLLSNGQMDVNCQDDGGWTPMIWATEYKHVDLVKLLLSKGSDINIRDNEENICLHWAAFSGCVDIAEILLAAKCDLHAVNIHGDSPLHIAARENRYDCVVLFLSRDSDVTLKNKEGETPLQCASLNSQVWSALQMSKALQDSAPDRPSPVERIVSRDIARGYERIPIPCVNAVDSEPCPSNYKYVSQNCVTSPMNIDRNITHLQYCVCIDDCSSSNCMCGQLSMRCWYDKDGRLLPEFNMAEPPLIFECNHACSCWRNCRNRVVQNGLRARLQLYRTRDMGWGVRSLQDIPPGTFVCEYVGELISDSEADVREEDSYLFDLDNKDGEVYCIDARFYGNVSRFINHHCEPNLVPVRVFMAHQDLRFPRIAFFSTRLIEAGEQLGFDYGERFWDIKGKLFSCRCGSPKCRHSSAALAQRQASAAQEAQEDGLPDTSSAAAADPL
Experiment: NMR assay of GLP-catalyzed methylation of H3K9 peptides
Assay type: biochemical
Conditions: peptide 400 µM, GLP 8 µM, SAM 2 mM, 50 mM Tris-d11.HCl pD 8.0, 1 h, 37 °C

GLP-catalyzed methylation by 1H NMR / 1H-13C HSQC, result in words: not methylated
Substance: ARTKQTAR(Kba9)STGGKA [H3Kba9]
